Source: patent US20220218690A1, “MONTELUKAST SALTS AND PHARMACEUTICAL COMPOSITIONS CONTAINING THE SAME” (GENETIC S.P.A., priority 2019, published 2022)
Entries after “also recorded” stand apart in the source; their conditions may differ.

Legend:
[1] = tested on: bronchial hyperreactivity
Procedure: (§1) Mouse model of asthma. Female BALB/c mice (8 weeks: Charles River) were sensitized through subcutaneous administration of Ovalbumin (100 μg dissolved in 400 μl of AlOH3 13.5 mg/ml) on days 0 and 8, on the twenty-first day the mice were stimulated by aerosolic administration of Ovalbumin (3% for twenty minutes). The mice were sacrificed after 48 hours and the bronchi used for the evaluation of bronchial reactivity at carbachol and salbutamol. The drugs were administered intraperitoneally prior to each exposure to the allergen. […] Pulmonary tissues were harvested and used for dosage of cytokines such as IL-4 and IL-13. In addition plasma levels of IgE were measured.

Paw mouse edema = conditions: 0.3 mg/kg intraperitoneal, 30 minutes before intraplantar carrageenin; FIG. 13
IgE = conditions: 0.3 mg/Kg; FIG. 18-A
Procedure: as §1

bronchial rings = conditions: Montelukast 1 μM, in vitro, FIG. 12

| Compound | therapeutic efficacy in controlling the development of hyperreactivity to carbachol induced by sensitization ([1]; salt […] vs Formoterol 0.3 mg/kg and Montelukast 0.3 mg/kg (almost double molar dose), FIG. 16) | therapeutic efficacy in controlling the airway dysfunction induced by sensitization ([1]; salt at halved molar dose respect to single drugs) | anti-inflammatory effect (Paw mouse edema) | IgE plasma levels (IgE) | effect of Montelukast preincubation on the bronchodilating response of Formoterol (bronchial rings) |
| --- | --- | --- | --- | --- | --- |
| CC(C)(O)c1ccccc1CCC(SCC1(CC(=O)O)CC1)c1cccc(C=Cc2ccc3ccc(Cl)cc3n2)c1.COc1ccc(CC(C)NCC(O)c2ccc(O)c(NC=O)c2)cc1 (centres unmarked) [Montelukast formoterol salt, N-(2-(3-formamido-4-hydroxyphenyl)-2-hydroxyethyl)-1-(4-methoxy-phenyl)propan-2-aminium-2-(1-(((1-(3-(2-(7-chloroquinolin-2-yl)vinyl)-phenyl)-3-(2-(2-hydroxypropan-2-yl)phenyl)propyl)thio-)methyl)cyclopropyl)acetate] | significantly higher than the parent drugs Formoterol and Montelukast | significantly higher than Formoterol and Montelukast; also recorded: more efficiently reverses both airway effects | – | – | – |
| CC(C)(O)c1ccccc1CC[C@@H](SCC1(CC(=O)O)CC1)c1cccc(/C=C/c2ccc3ccc(Cl)cc3n2)c1 [Montelukast, (R,E)-2-(1-((1-(3-(2-(7-Chloroquinolin-2-yl)vinyl)phenyl)-3-(2-(2-hydroxypropan-2-yl)phenyl)propylthio)-methyl)cyclopropyl)acetic acid] | – | – | induces an anti-inflammatory effect | unaffected | does not alter the bronchodilating response of the Formoterol, preserves its efficacy |
